Converted amounts (≈) assume the structure as drawn. “And” between values parts separate entries of the source, which are not always exact repeats. Equal values may be shown once.

We go through eight compounds from DBAASP.

Among the test systems are Escherichia coli D31; Klebsiella pneumoniae; Staphylococcus aureus; Vibrio cholerae N16961; Escherichia coli BL21AI.
Holding throughout (test): ≥ marks a high value that may be exact or a test limit, other limits are often not marked, values filed in µg/mL are converted to µM
The test system of assay [1] is Staphylococcus aureus ATCC 27660.
Assay [2] relates to Staphylococcus epidermidis ATCC 14990.
The test system of assay [3] is Pseudomonas aeruginosa ATCC 10145.
The test system of assay [4] is Salmonella enterica subsp. enterica serovar Typhimurium ATCC 700931.
Assay [5] has as its system Escherichia coli KCTC 1682.
Assay [6] has as its system Enterococcus faecalis KCTC 2011.
In assay [7] the test system is Bacillus subtilis KCTC 3068.
Assay [8] concerns Pseudomonas aeruginosa KCTC 1637.
Assay [9] relates to Staphylococcus epidermidis KCTC 1917.
Assay [10] deals with Escherichia coli ATCC 25922.
In assay [11] the test system is Staphylococcus epidermidis ATCC 12228.
The subject of assay [12] is Staphylococcus aureus KCTC 1621.
Assay [13] concerns Salmonella typhimurium KCTC 1926.
The test system of assay [14] is Proteus vulgaris KCTC 2433.
For assay [15], the system named is Enterococcus faecalis PCM 2673.
In assay [16] the test system is Pseudomonas aeruginosa ATCC 9027.
For assay [17], the system named is Staphylococcus aureus ATCC 25923.
In assay [18] the test system is Candida albicans ATCC 10231.
The subject of assay [19] is Staphylococcus aureus ATCC 29213.
In assay [20] the test system is Staphylococcus aureus ATCC 33591.
Assay [21] relates to Escherichia coli ATCC 11229.
In assay [22] the test system is Escherichia coli ATCC 35218.
For assay [23], the system named is Salmonella enterica serovar Typhimurium.
In assay [24] the test system is Klebsiella pneumoniae ATCC 13866.
Assay [25] deals with Pseudomonas aeruginosa ATCC 27853.
Assay [26] has as its system Staphylococcus aureus NBRC 13276.
Assay [27] has as its system Pseudomonas aeruginosa NBRC 13275.
Assay [28] has as its system Escherichia coli DH5alpha.
Assay [29] relates to Micrococcus luteus ATCC 49732.
The test system of assay [30] is Aeromonas hydrophila ATCC 35654.
Assay [31] has as its system Micrococcus luteus DSM 1790.

`CC[C@H](C)[C@H](NC(=O)[C@H](C)N)C(=O)N[C@@H](Cc1c[nH]c2ccccc12)C(=O)N[C@@H](CCCCN)C(=O)N[C@@H](CCCCN)C(=O)N[C@H](C(=O)N[C@H](C(=O)N[C@@H](CCCCN)C(=O)N[C@@H](CCCCN)C(=O)N[C@H](C(=O)N[C@H](C(=O)N[C@@H](CCCCN)C(=O)N[C@@H](CO)C(=O)N[C@@H](C)C(=O)N[C@@H](CCCCN)C(=O)N[C@@H](CCCCN)C(=O)N[C@H](C(=O)NCC(=O)O)[C@@H](C)CC)[C@@H](C)CC)[C@@H](C)CC)[C@@H](C)CC)[C@@H](C)CC` [AIWKKIIKKIIKSAKKIG]: the MIC in [1] amounted to 1.88 µM (≈ 3.89 µg/mL); in assay [2] it was 0.94 µM (≈ 1.94 µg/mL); against Escherichia coli D31, 0.94 µM (≈ 1.94 µg/mL); in assay [3] it was 1.88 µM (≈ 3.89 µg/mL); in assay [4], 1.88 µM (≈ 3.89 µg/mL).
As to `CC[C@H](C)[C@@H]1NC(=O)CNC(=O)[C@@H](NC(=O)[C@H](CC(C)C)NC(=O)[C@@H](NC(=O)[C@H](CO)NC(=O)[C@@H]2CCCN2C(=O)[C@H](CC(C)C)NC(=O)[C@@H](NC(=O)[C@H](CCCCN)NC(=O)[C@H](C)NC(=O)CNC(=O)[C@@H](NC(=O)[C@H](CCCCN)NC(=O)[C@H](CC(C)C)NC(=O)[C@H](CC(C)C)NC(=O)[C@H](C)NC(=O)CNC(=O)[C@H](CC(C)C)NC(=O)[C@@H](N)Cc2ccccc2)[C@@H](C)CC)C(C)C)C(C)C)CSSC[C@@H](C(N)=O)NC(=O)[C@H](CCCCN)NC(=O)[C@H](CCCCN)NC(=O)[C@H](Cc2ccccc2)NC1=O` [FLGALLKIGAKVLPSVLCGIFKKC], the MIC against Klebsiella pneumoniae amounted to 15 µM (≈ 37.7 µg/mL); against Staphylococcus aureus it was 4 µM (≈ 10.1 µg/mL); against Vibrio cholerae N16961, 4.5 µM (≈ 11.3 µg/mL).
Regarding `CC[C@H](C)[C@H](NC(=O)CN)C(=O)NCC(=O)N[C@@H](CCCCN)C(=O)N[C@@H](Cc1c[nH]c2ccccc12)C(=O)N[C@@H](CC(C)C)C(=O)N[C@@H](Cc1cnc[nH]1)C(=O)N[C@@H](CO)C(=O)N[C@@H](C)C(=O)N[C@@H](CCCCN)C(=O)N[C@@H](CCCCN)C(=O)N[C@@H](Cc1ccccc1)C(=O)NCC(=O)N[C@@H](CCCCN)C(=O)N[C@@H](C)C(=O)N[C@@H](Cc1ccccc1)C(=O)N[C@H](C(=O)NCC(=O)N[C@@H](CCC(=O)O)C(=O)N[C@H](C(=O)N[C@@H](CCSC)C(=O)N[C@@H](CC(N)=O)C(=O)N[C@@H](CO)C(=O)O)[C@@H](C)CC)C(C)C` [GIGKWLHSAKKFGKAFVGEIMNS], the MIC in assay [5] was not below 32 µM; in assay [6], 16 µM (≈ 40.1 µg/mL); in [7] it was 8 µM (≈ 20 µg/mL); in assay [8] it was not below 32 µM; in [9], 16 µM (≈ 40.1 µg/mL); in [10] it was 8 µM and 20 µM. Further, the MIC in [11] was 20 µM and 40 µM; in [12], 22.6 µM (≈ 56.7 µg/mL); in assay [13] it was 22.6 µM (≈ 56.7 µg/mL); in assay [14], not below 45.3 µM.
Regarding `CC[C@H](C)[C@H](NC(=O)[C@H](CCCCN)NC(=O)[C@H](CCCCN)NC(=O)[C@@H](NC(=O)[C@@H](NC(=O)[C@H](CC(=O)O)NC(=O)[C@H](Cc1ccccc1)NC(=O)[C@H](CC(C)C)NC(=O)CN)[C@@H](C)CC)[C@@H](C)CC)C(=O)N[C@@H](C)C(=O)N[C@@H](CCC(=O)O)C(=O)N[C@@H](C)C(=O)N[C@@H](Cc1ccccc1)C(N)=O` [GLFDIIKKIAEAF], the MIC is not below 43.7 µM in [15]; more than 350 µM in assay [16]; 43.7 µM (≈ 64 µg/mL) in assay [10]; 21.8 µM (≈ 32 µg/mL) in assay [17]; 21.8 µM (≈ 32 µg/mL) in assay [18].
As for `CC[C@H](C)[C@H](NC(=O)[C@H](C)NC(=O)[C@H](CCCN=C(N)N)NC(=O)[C@H](CC(C)C)NC(=O)[C@@H](NC(=O)[C@H](CO)NC(=O)CN)C(C)C)C(=O)N[C@@H](CCSC)C(=O)N[C@@H](CCCN=C(N)N)C(=O)N[C@@H](CCSC)C(=O)N[C@@H](Cc1ccccc1)C(=O)N[C@@H](C)C(=O)N[C@@H](CCCCN)C(=O)N[C@@H](CC(C)C)C(=O)N[C@@H](CCSC)C(=O)NCC(=O)O` [GSVLRAIMRMFAKLMG], the MIC in assay [11] is 4.49 µM (≈ 8 µg/mL); in assay [17] it was 35.9 µM (≈ 64 µg/mL); in assay [19] it was 35.9 µM (≈ 64 µg/mL); in assay [20], 4.49 µM (≈ 8 µg/mL); in assay [21], not below 35.9 µM; in assay [22], not below 35.9 µM. The MIC in assay [23] is not below 35.9 µM; in [24] it was not below 35.9 µM; in [25], 18 µM (≈ 32 µg/mL).
`CC[C@H](C)[C@H](NC(=O)[C@H](CCC(=O)O)NC(=O)CNC(=O)[C@@H](NC(=O)[C@H](Cc1ccccc1)NC(=O)[C@H](C)NC(=O)[C@H](CCCCN)NC(=O)CNC(=O)[C@H](Cc1ccccc1)NC(=O)[C@H](CCCCN)NC(=O)[C@H](CCCCN)NC(=O)[C@H](C)NC(=O)[C@H](CO)NC(=O)[C@H](Cc1cnc[nH]1)NC(=O)[C@H](CC(C)C)NC(=O)[C@H](Cc1ccccc1)NC(=O)[C@H](CCCCN)NC(C)=O)C(C)C)C(=O)N[C@@H](CCSC)C(=O)N[C@@H](CC(N)=O)C(=O)N[C@@H](CO)C(N)=O` [KFLHSAKKFGKAFVGEIMNS]: the MIC in assay [26] was not below 400 µM; in [27], not below 200 µM; in assay [28], not below 200 µM.
As for `CC[C@H](C)[C@H](NC(=O)[C@H](CC(C)C)NC(=O)[C@H](CCC(N)=O)NC(=O)[C@@H](NC(=O)[C@H](CCCCN)NC(=O)[C@@H](NC(=O)[C@H](CS)NC(=O)[C@H](CCCCN)NC(=O)[C@@H](N)CCCN=C(N)N)C(C)C)C(C)C)C(=O)N[C@@H](CCCCN)C(=O)N[C@@H](CC(N)=O)C(=O)NCC(=O)N[C@@H](CCCN=C(N)N)C(=O)N[C@@H](CCC(N)=O)C(=O)N[C@H](C(=O)N[C@H](C(=O)N[C@@H](C)C(=O)N[C@@H](Cc1ccccc1)C(N)=O)[C@@H](C)O)C(C)C` [RKCVKVQLIKNGRQVTAF], the MIC in [29] was 7.2 µM (≈ 15 µg/mL); in assay [30] it was 20 µM (≈ 41.8 µg/mL); in assay [10] it was 12 µM (≈ 25.1 µg/mL); in [17] it was more than 20 µM.
Regarding `CC[C@H](C)[C@H](NC(=O)[C@H](CCCN=C(N)N)NC(=O)[C@H](CCCN=C(N)N)NC(=O)[C@@H]1CCCN1C(=O)[C@@H]1CCCN1C(=O)[C@H](Cc1cnc[nH]1)NC(=O)[C@@H]1CCCN1C(=O)[C@H](CCCN=C(N)N)NC(=O)[C@@H]1CCCN1C(=O)[C@H](CC(C)C)NC(=O)[C@H](Cc1ccc(O)cc1)NC(=O)[C@@H]1CCCN1C(=O)[C@@H]1CCCN1C(=O)[C@H](CCCCN)NC(=O)[C@H](CC(=O)O)NC(=O)[C@@H](N)C(C)C)C(=O)N[C@@H](Cc1ccc(O)cc1)C(=O)N[C@@H](CC(N)=O)C(=O)O` [VDKPPYLPRPHPPRRIYN], the MIC in assay [31] turned out to be 14.1 µM (≈ 31.3 µg/mL); in the assay on Escherichia coli BL21AI it was 28.2 µM (≈ 62.5 µg/mL).
